Values of other authors, collected in patent US9943479B2, “Injectable liquid paracetamol formulation” (GENFARMA LABORATORIO S.L., priority 2006, dated 2018).
Converted amounts (≈) assume the structure as drawn. Where two headings read alike, the source gives them in different places.

CC(=O)Nc1ccc(O)cc1 [paracetamol, n-acetyl-4-aminophenol]
solubility in aqueous medium (4° C.): ~8000 µg/mL (≈ 52.9 mM) | solubility in aqueous medium (20° C.): ~12000 µg/mL (≈ 79.4 mM)
